Experimental data: ChEMBL document CHEMBL1777740, “Toward self-adjuvanting subunit vaccines: model peptide and protein antigens incorporating covalently bound toll-like receptor-7 agonistic imidazoquinolines” (Bioorg Med Chem Lett, 2011)
Calls of active or inactive are those of the source. No cut-off for these calls is given here.

Experiments:
Format in all cases: functional, cell-based
[1] = test system: PBMC; test: Immunostimulatory activity in human PBMC assessed as Th1-biased immunostimulatory activity measured as IL18 release by ELISA
[2] = test system: PBMC; test: Immunostimulatory activity in human PBMC assessed as Th1-biased immunostimulatory activity measured as IFNalpha release by ELISA
[3] = test system: PBMC; test: Immunostimulatory activity in human PBMC assessed as Th1-biased immunostimulatory activity measured as IL12 release by ELISA
[4] = test system: PBMC; test: Immunostimulatory activity in human PBMC assessed as Th1-biased immunostimulatory activity measured as IFN-gamma release by ELISA
[5] = target: T1, Toll-like receptor 7 (Homo sapiens) (UniProt Q9NYK1); test: Agonist activity at human TLR7 transfected in HEK reporter cells assessed as NF-kappaB induction by specific secreted alkaline phosphatase gene assay; conditions: HEK293
T1 sequence (whole entry): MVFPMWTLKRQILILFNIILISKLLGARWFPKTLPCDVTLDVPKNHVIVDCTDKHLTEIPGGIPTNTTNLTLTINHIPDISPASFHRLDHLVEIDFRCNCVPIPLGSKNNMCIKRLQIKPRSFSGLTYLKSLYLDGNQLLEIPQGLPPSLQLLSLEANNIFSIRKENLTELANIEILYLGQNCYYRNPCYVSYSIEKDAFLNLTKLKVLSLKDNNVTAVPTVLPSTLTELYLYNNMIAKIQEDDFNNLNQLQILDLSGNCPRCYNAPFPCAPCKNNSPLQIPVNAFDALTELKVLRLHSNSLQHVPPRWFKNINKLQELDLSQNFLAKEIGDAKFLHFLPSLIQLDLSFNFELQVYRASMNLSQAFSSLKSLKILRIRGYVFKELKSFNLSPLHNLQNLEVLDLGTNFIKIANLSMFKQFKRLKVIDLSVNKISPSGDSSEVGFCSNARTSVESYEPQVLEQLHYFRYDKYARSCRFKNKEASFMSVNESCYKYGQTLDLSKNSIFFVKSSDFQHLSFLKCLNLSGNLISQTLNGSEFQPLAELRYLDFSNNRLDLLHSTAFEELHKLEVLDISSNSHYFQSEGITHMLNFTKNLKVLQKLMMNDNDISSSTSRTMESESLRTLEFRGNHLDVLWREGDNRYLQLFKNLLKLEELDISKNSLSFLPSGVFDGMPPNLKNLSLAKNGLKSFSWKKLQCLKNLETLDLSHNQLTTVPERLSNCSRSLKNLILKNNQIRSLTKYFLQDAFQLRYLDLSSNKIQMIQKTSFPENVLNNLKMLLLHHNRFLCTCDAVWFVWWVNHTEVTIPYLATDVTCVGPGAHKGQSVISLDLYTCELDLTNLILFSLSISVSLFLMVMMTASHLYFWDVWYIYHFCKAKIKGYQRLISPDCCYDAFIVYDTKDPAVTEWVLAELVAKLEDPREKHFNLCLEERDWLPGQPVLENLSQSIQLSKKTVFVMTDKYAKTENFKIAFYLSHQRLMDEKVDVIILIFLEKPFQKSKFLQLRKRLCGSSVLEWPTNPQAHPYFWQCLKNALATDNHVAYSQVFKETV

| SMILES | Activity [1] | Activity [2] | Activity [3] | Activity [4] | Activity [5] |
| --- | --- | --- | --- | --- | --- |
| CCCCc1nc2c(N)nc3ccccc3c2n1Cc1ccc(CN)cc1 | Active | Active | Active | Active |  |
| CCCCc1nc2c(N)nc3ccccc3c2n1Cc1ccc(CNC(=O)CCN2C(=O)CC(SC[C@@H](NC(=O)CC[C@@H](N)C(=O)O)C(=O)NCC(=O)O)C2=O)cc1 (stereo not given in full) |  |  |  |  | inactive |
